Measurements published in ChEMBL document CHEMBL1158870, “Antitumor agents. 180. Chemical Studies and cytotoxic evaluation of cumingianosides and cumindysoside A, antileukemic triterpene glucosides with a 14,18-cycloapotirucallane skeleton” (1997).

Tests used:
CCRF-CEM = assay: Cytotoxicity against human CCRF-CEM cells by SRB assay; assay type: functional
[1] = Cytotoxicity against human HL60(TB) cells by SRB assay; assay type: functional, HL-60(TB); conditions: HL-60
K562 = assay: Cytotoxicity against human K562 cells by SRB assay; assay type: functional
MOLT-4 = assay: Cytotoxicity against human MOLT4 cells by SRB assay; assay type: functional
RPMI-8226 = assay: Cytotoxicity against human RPMI8226 cells by SRB assay; assay type: functional
SR = assay: Cytotoxicity against human SR cells by SRB assay; assay type: functional
A549 = assay: Cytotoxicity against human A549 cells by SRB assay; assay type: functional
EKVX = assay: Cytotoxicity against human EKVX cells by SRB assay; assay type: functional
HOP-62 = assay: Cytotoxicity against human HOP62 cells by SRB assay; assay type: functional
HOP-92 = assay: Cytotoxicity against human HOP92 cells by SRB assay; assay type: functional
NCI-H226 = assay: Cytotoxicity against human NCI-H226 cells by SRB assay; assay type: functional
NCI-H23 = assay: Cytotoxicity against human NCI-H23 cells by SRB assay; assay type: functional
NCI-H322M = assay: Cytotoxicity against human NCI-H322M cells by SRB assay; assay type: functional
NCI-H460 = assay: Cytotoxicity against human NCI-H460 cells by SRB assay; assay type: functional
NCI-H522 = assay: Cytotoxicity against human NCI-H522 cells by SRB assay; assay type: functional
COLO 205 = assay: Cytotoxicity against human COLO205 cells by SRB assay; assay type: functional
HCC 2998 = assay: Cytotoxicity against human HCC2998 cells by SRB assay; assay type: functional
HCT-116 = assay: Cytotoxicity against human HCT116 cells by SRB assay; assay type: functional
HCT-15 = assay: Cytotoxicity against human HCT15 cells by SRB assay; assay type: functional
HT-29 = assay: Cytotoxicity against human HT29 cells by SRB assay; assay type: functional
KM12 = assay: Cytotoxicity against human KM12 cells by SRB assay; assay type: functional
SW-620 = assay: Cytotoxicity against human SW620 cells by SRB assay; assay type: functional
SF-268 = assay: Cytotoxicity against human SF268 cells by SRB assay; assay type: functional
SF-295 = assay: Cytotoxicity against human SF295 cells by SRB assay; assay type: functional
SNB-19 = assay: Cytotoxicity against human SNB19 cells by SRB assay; assay type: functional
SNB-75 = assay: Cytotoxicity against human SNB75 cells by SRB assay; assay type: functional
U-251 = assay: Cytotoxicity against human U251 cells by SRB assay; assay type: functional
LOX IMVI = assay: Cytotoxicity against human LOXIMVI cells by SRB assay; assay type: functional
Malme-3M = assay: Cytotoxicity against human MALME-3M cells by SRB assay; assay type: functional
M14 = assay: Cytotoxicity against human M14 cells by SRB assay; assay type: functional
SK-MEL-2 = assay: Cytotoxicity against human SK-MEL-2 cells by SRB assay; assay type: functional
SK-MEL-28 = assay: Cytotoxicity against human SK-MEL-28 cells by SRB assay; assay type: functional
SK-MEL-5 = assay: Cytotoxicity against human SK-MEL-5 cells by SRB assay; assay type: functional
UACC-257 = assay: Cytotoxicity against human UACC257 cells by SRB assay; assay type: functional
UACC-62 = assay: Cytotoxicity against human UACC62 cells by SRB assay; assay type: functional
IGROV-1 = assay: Cytotoxicity against human IGROV1 cells by SRB assay; assay type: functional
OVCAR-3 = assay: Cytotoxicity against human OVCAR-3 cells by SRB assay; assay type: functional
OVCAR-4 = assay: Cytotoxicity against human OVCAR4 cells by SRB assay; assay type: functional
OVCAR-5 = assay: Cytotoxicity against human OVCAR5 cells by SRB assay; assay type: functional
OVCAR-8 = assay: Cytotoxicity against human OVCAR8 cells by SRB assay; assay type: functional
SK-OV-3 = assay: Cytotoxicity against human SKOV3 cells by SRB assay; assay type: functional
[2] = Cytotoxicity against human 786-O cells by SRB assay; assay type: functional; conditions: 786-0
A498 = assay: Cytotoxicity against human A498 cells by SRB assay; assay type: functional
ACHN = assay: Cytotoxicity against human ACHN cells by SRB assay; assay type: functional
CAKI-1 = assay: Cytotoxicity against human Caki1 cells by SRB assay; assay type: functional
RXF 393 = assay: Cytotoxicity against human RXF393 cells by SRB assay; assay type: functional
SN12C = assay: Cytotoxicity against human SN12C cells by SRB assay; assay type: functional
UO-31 = assay: Cytotoxicity against human UO31 cells by SRB assay; assay type: functional
PC-3 = assay: Cytotoxicity against human PC3 cells by SRB assay; assay type: functional
DU-145 = assay: Cytotoxicity against human DU145 cells by SRB assay; assay type: functional
MCF7 = assay: Cytotoxicity against human MCF7 cells by SRB assay; assay type: functional
[3] = Cytotoxicity against human MCF7/ADR cells by SRB assay; assay type: functional; conditions: NCI/ADR-RES
MDA-MB-231 = assay: Cytotoxicity against human MDA-MB-231 cells by SRB assay; assay type: functional
[4] = Cytotoxicity against human Hs 578T cells by SRB assay; assay type: functional
MDA-MB-435 = assay: Cytotoxicity against human MDA-MB-435 cells by SRB assay; assay type: functional
MDA-N = assay: Cytotoxicity against human MDA-N cells by SRB assay; assay type: functional
BT-549 = assay: Cytotoxicity against human BT549 cells by SRB assay; assay type: functional
T47D = assay: Cytotoxicity against human T47D cells by SRB assay; assay type: functional
Leukemia cell = assay: Cytotoxicity against human Leukemia cells by SRB assay; assay type: functional
NSCLC = assay: Cytotoxicity against human NSCLC cells by SRB assay; assay type: functional
[5] = Cytotoxicity against human Colon cancer cells by SRB assay; assay type: functional; conditions: Cancer cell lines
[6] = Cytotoxicity against human CNS cancer cells by SRB assay; assay type: functional; conditions: Cancer cell lines
[7] = Cytotoxicity against human melanoma cells by SRB assay; assay type: functional; conditions: Melanoma cell
[8] = Cytotoxicity against human ovarian cancer cells by SRB assay; assay type: functional; conditions: Cancer cell lines
[9] = Cytotoxicity against human prostate cancer cells by SRB assay; assay type: functional; conditions: Cancer cell lines
[10] = Cytotoxicity against human breast cancer cells by SRB assay; assay type: functional; conditions: Cancer cell lines
[11] = Cytotoxicity against human renal cancer cells by SRB assay; assay type: functional; conditions: Cancer cell lines

Which results are given for `COC(C)(C)[C@@H](O)[C@H]1C[C@H](C)[C@@]2(CC[C@]3(C)[C@@H]2CC[C@@H]2[C@@]4(C)CC[C@@H](OC(C)=O)C(C)(C)[C@@H]4C[C@@H](O[C@@H]4O[C@H](COC(C)=O)[C@@H](O)[C@H](O)[C@H]4O)[C@]23C)O1`?
GI50 (CCRF-CEM): 3.09 µM; GI50 [1]: 2.34 µM; GI50 (K562): 3.09 µM; GI50 (MOLT-4): 2.29 µM; GI50 (RPMI-8226): 2.4 µM; GI50 (SR): 2.19 µM; GI50 (A549): 3.89 µM; GI50 (EKVX): 5.5 µM; GI50 (HOP-62): 11.5 µM; GI50 (HOP-92): 12.9 µM; GI50 (NCI-H226): 4.79 µM; GI50 (NCI-H23): 9.33 µM; GI50 (NCI-H322M): 1.91 µM; GI50 (NCI-H460): 3.8 µM; GI50 (NCI-H522): 4.57 µM; GI50 (COLO 205): 2.14 µM; TGI (COLO 205): 4.7 µM; GI50 (HCC 2998): 0.204 µM; TGI (HCC 2998): 1.8 µM; GI50 (HCT-116): 2.69 µM; TGI (HCT-116): 10 µM; GI50 (HCT-15): 2.4 µM; TGI (HCT-15): 5.6 µM; GI50 (HT-29): 1.86 µM; TGI (HT-29): 4 µM; GI50 (KM12): 1.32 µM; TGI (KM12): 2 µM; GI50 (SW-620): 6.46 µM; TGI (SW-620): 19.8 µM; GI50 (SF-268): 6.03 µM; GI50 (SF-295): 4.37 µM; GI50 (SNB-19): 10 µM; GI50 (SNB-75): 3.55 µM; GI50 (U-251): 5.37 µM; GI50 (LOX IMVI): 4.79 µM; GI50 (Malme-3M): 11.2 µM; GI50 (M14): 4.47 µM; GI50 (SK-MEL-2): 6.17 µM; GI50 (SK-MEL-28): 6.31 µM; GI50 (SK-MEL-5): 8.32 µM; GI50 (UACC-257): 5.89 µM; GI50 (UACC-62): 5.25 µM; GI50 (IGROV-1): 4.37 µM; GI50 (OVCAR-3): 4.79 µM; GI50 (OVCAR-4): 2.95 µM; GI50 (OVCAR-5): 3.16 µM; GI50 (OVCAR-8): 5.25 µM; GI50 (SK-OV-3): 4.79 µM; GI50 [2]: 5.25 µM; GI50 (A498): 13.2 µM; GI50 (ACHN): 5.25 µM; GI50 (CAKI-1): 5.37 µM; GI50 (RXF 393): 3.16 µM; GI50 (SN12C): 4.17 µM; GI50 (UO-31): 5.25 µM; GI50 (PC-3): 2.82 µM; GI50 (DU-145): 4.47 µM; GI50 (MCF7): 2.14 µM; GI50 [3]: 7.41 µM; GI50 (MDA-MB-231): 11 µM; GI50 [4]: 4.07 µM; GI50 (MDA-MB-435): 3.63 µM; GI50 (MDA-N): 5.25 µM; GI50 (BT-549): 12.6 µM; GI50 (T47D): 4.17 µM; TGI (Leukemia cell): 32.1 µM; TGI (NSCLC): 17.8 µM; TGI [5]: 6.9 µM; TGI [6]: 18.7 µM; TGI [7]: 20.2 µM; TGI [8]: 15.8 µM; TGI [9]: 13.1 µM; TGI [10]: 18.6 µM; TGI [11]: 17.9 µM

Which results are given for `COC(C)(C)[C@@H](O)[C@H](O)C[C@H](C)C1=C2CC[C@@H]3[C@@]4(C)CC[C@@H](OC(C)=O)C(C)(C)[C@@H]4C[C@@H](O[C@@H]4O[C@H](COC(C)=O)[C@@H](O)[C@H](O)[C@H]4O)[C@@]3(C)[C@]2(C)CC1`?
GI50 (CCRF-CEM): 5.37 µM; GI50 [1]: 3.63 µM; GI50 (K562): 6.03 µM; GI50 (MOLT-4): 5.13 µM; GI50 (RPMI-8226): 4.17 µM; GI50 (SR): 3.09 µM; GI50 (A549): 7.76 µM; GI50 (EKVX): 12.9 µM; GI50 (HOP-62): 14.5 µM; GI50 (HOP-92): 12.9 µM; GI50 (NCI-H226): 13.2 µM; GI50 (NCI-H23): 14.5 µM; GI50 (NCI-H322M): 12.9 µM; GI50 (NCI-H460): 9.12 µM; GI50 (NCI-H522): 12.3 µM; GI50 (COLO 205): 10.7 µM; TGI (COLO 205): 22.8 µM; GI50 (HCC 2998): 3.98 µM; TGI (HCC 2998): 13.4 µM; GI50 (HCT-116): 6.03 µM; TGI (HCT-116): 19.2 µM; GI50 (HCT-15): 11 µM; TGI (HCT-15): 23.8 µM; GI50 (HT-29): 5.13 µM; TGI (HT-29): 16.9 µM; GI50 (KM12): 3.55 µM; TGI (KM12): 18.9 µM; GI50 (SW-620): 15.8 µM; TGI (SW-620): 30.1 µM; GI50 (SF-268): 10.2 µM; GI50 (SF-295): 11.5 µM; GI50 (SNB-19): 12.3 µM; GI50 (SNB-75): 3.89 µM; GI50 (U-251): 5.37 µM; GI50 (LOX IMVI): 6.31 µM; GI50 (Malme-3M): 15.1 µM; GI50 (M14): 12.3 µM; GI50 (SK-MEL-2): 13.2 µM; GI50 (SK-MEL-28): 11.7 µM; GI50 (SK-MEL-5): 14.5 µM; GI50 (UACC-257): 12.6 µM; GI50 (UACC-62): 8.71 µM; GI50 (IGROV-1): 13.2 µM; GI50 (OVCAR-3): 7.41 µM; GI50 (OVCAR-4): 10.7 µM; GI50 (OVCAR-5): 14.8 µM; GI50 (OVCAR-8): 12.9 µM; GI50 (SK-OV-3): 15.1 µM; GI50 [2]: 14.5 µM; GI50 (A498): 14.1 µM; GI50 (ACHN): 10.5 µM; GI50 (CAKI-1): 4.07 µM; GI50 (RXF 393): 6.92 µM; GI50 (SN12C): 13.5 µM; GI50 (UO-31): 13.5 µM; GI50 (PC-3): 5.62 µM; GI50 (DU-145): 15.1 µM; GI50 (MCF7): 2.63 µM; GI50 [3]: 15.1 µM; GI50 (MDA-MB-231): 11.5 µM; GI50 [4]: 11.7 µM; GI50 (MDA-MB-435): 12.3 µM; GI50 (MDA-N): 11.7 µM; GI50 (BT-549): 15.1 µM; GI50 (T47D): 12.6 µM; TGI (Leukemia cell): 20.9 µM; TGI (NSCLC): 25.6 µM; TGI [5]: 20.7 µM; TGI [6]: 23.8 µM; TGI [7]: 29.9 µM; TGI [8]: 25.6 µM; TGI [9]: 23.5 µM; TGI [10]: 24.8 µM; TGI [11]: 23.6 µM
